# Experimental data taken from the Deep4Chem optical property database.
# Test: solvent given as SMILES
compound,measurement,setting,value
N#Cc1coc2ccccc2c1=O,emission maximum,in C1CCOC1,373 nm
same,emission maximum,in C1COCCO1,402 nm
same,emission maximum,in CC#N,495 nm
same,emission maximum,in CC(C)O,411 nm
same,emission maximum,in CCCCO,500 nm
same,emission maximum,in CCCO,440 nm
same,emission maximum,in CCOC(C)=O,495 nm
same,emission maximum,in CN(C)C=O,494 nm
same,emission maximum,in CO,415 nm
same,emission maximum,in CS(C)=O,490 nm
same,emission maximum,in ClC(Cl)Cl,438 nm
same,emission maximum,in O,396 nm
O=S1(=O)c2ccccc2C2(c3cc(-c4ccc(-n5c6ccccc6c6ccccc65)cc4)ccc3-c3ccc(-c4ccc(-n5c6ccccc6c6ccccc65)cc4)cc32)c2ccccc21,emission maximum,in ClCCl,427 nm
same,emission maximum,in c1cc(-n2c3ccccc3c3ccccc32)cc(-n2c3ccccc3c3ccccc32)c1,412 nm
COc1ccc2c3c(c4ccc(OC)cc4c2c1)C(C)(C)c1ccc2ccccc2c1-3,emission maximum,in C1CCCCC1,396 nm
c1ccc2c(c1)nc1ccccn12,emission maximum,in CC#N,414 nm
CCCCCCCCC1(CCCCCCCC)c2cc(-c3ccc([Si](C)(C)C)cc3)ccc2-c2ccc(-c3ccc([Si](C)(C)C)cc3)cc21,emission maximum,in ClC(Cl)Cl,368 nm
CCN(CC)c1ccc2c(c1)oc(=O)c1c(=O)oc3c(C)c4oc(=O)c5c(=O)oc6cc(N(CC)CC)ccc6c5c4cc3c12,emission maximum,in CS(C)=O,558 nm
same,emission maximum,in ClCCl,542 nm
c1ccc(-c2ccc(-c3ccc(-n4c5ccccc5c5ccccc54)cc3)c3nsnc23)cc1,emission maximum,in C1CCOC1,527 nm
same,emission maximum,in CC(C)=O,562 nm
same,emission maximum,in CCCCCC,481 nm
same,emission maximum,in CCOCC,504 nm
CCOC(=O)C1=C(C(=O)OCC)C2(c3ccccc3-c3ccccc32)[C@@H](c2ccccc2)C=C2c3cc(OC)c(OC)cc3CCN21,emission maximum,in ClCCl,430 nm
CN(C)c1ncc2nc(C#N)n(Cc3ccccc3)c2n1,emission maximum,in C1COCCO1,424 nm
same,emission maximum,in CC#N,440 nm
same,emission maximum,in CO,456 nm
same,emission maximum,in ClCCl,429 nm
CC(C)(C)c1ccc(C2=c3c(c4ccc(C(C)(C)C)cc4c4cc(C(C)(C)C)ccc34)=[N+]3C2=C(c2ccccc2)c2c(-c4ccc(C(C)(C)C)cc4)c4c5ccc(C(C)(C)C)cc5c5cc(C(C)(C)C)ccc5c4n2[B-]3(F)F)cc1,emission maximum,in C1CCCCC1,711 nm
same,emission maximum,in C1CCOC1,712 nm
same,emission maximum,in CC#N,706 nm
same,emission maximum,in Cc1ccccc1,714 nm
same,emission maximum,in ClCCl,712 nm
C(=C\c1nc2c(c(N3CCOCC3)n1)CCCC2)/c1ccccc1,emission maximum,in ClCCl,333 nm
COc1ccc(N(c2ccc(OC)cc2)c2cc(N(c3ccc(OC)cc3)c3ccc(OC)cc3)c3ccc4cc(C(C)(C)C)cc5ccc2c3c54)cc1,emission maximum,in ClCCl,525 nm
c1ccc2c(c1)OP1(=NP3(=NP(Oc4ccc5ccc6cccc7ccc4c5c67)(Oc4ccc5ccc6cccc7ccc4c5c67)=N1)Oc1ccccc1-c1ccccc1O3)Oc1ccccc1-2,emission maximum,in ClCCl,463 nm
CCCCCCN1C(=O)c2cccc3c(-c4ccc(-c5cc(-c6ccc(Cl)cc6)nn5-c5ccccc5)s4)ccc(c23)C1=O,emission maximum,in ClCCl,519 nm
CC(=O)c1c2c(cc3ccc(N(C)C)cc13)CCC2,emission maximum,in C1CCCCC1,466 nm
same,emission maximum,in C1CCOC1,497 nm
same,emission maximum,in C1COCCO1,495 nm
same,emission maximum,in CC#N,529 nm
same,emission maximum,in CCO,578 nm
same,emission maximum,in CS(C)=O,536 nm
same,emission maximum,in Cc1ccccc1,490 nm
same,emission maximum,in ClC(Cl)Cl,516 nm
same,emission maximum,in ClCCl,510 nm
F[B-]1(F)n2cccc2C(c2ccccc2)=C2C=CC(c3ccc(OC4=[N+]5C(=C(c6ccccc6)c6cc(Br)c(Br)n6[B-]5(F)F)C=C4Br)cc3)=[N+]21,emission maximum,in ClC(Cl)Cl,574 nm
CC1=CC(C)=[N+]2C1=Cc1c3ccccc3c(C#Cc3ccc(F)cc3)n1[B-]2(F)F,emission maximum,in CCCCCC,615 nm
same,emission maximum,in CCCCCCCCO,623 nm
same,emission maximum,in CCOC(C)=O,617 nm
same,emission maximum,in CN(C)C=O,624 nm
C#Cc1ccc2cc(/C=C/C(=O)OCC)c(=O)oc2c1,emission maximum,in CCO,412 nm
CN(C)c1cc2c(cc1F)c(=O)c1cc(F)c(N)cc1n2C,emission maximum,in CCO,432 nm
C[N+]1=c2cc3c(cc2C(C)(C)CC1)=C(c1ccccc1C(=O)O)c1cc2c(cc1O3)Oc1cc3c(cc1=C2c1ccccc1C(=O)O)C(C)(C)CC[N+]=3C,emission maximum,in ClC(Cl)Cl,612 nm
FC(F)(F)C(F)(F)C(F)(F)C1=NC2=C(Sc3ccccc3)C=C3c4cc(Sc5ccccc5)c5nc(C(F)(F)C(F)(F)C(F)(F)F)nc6c(Sc7ccccc7)cc(c4c56)=C4C=C(Sc5ccccc5)C(=N1)C2C34 (centres undefined),emission maximum,in C1CCOC1,606 nm
Clc1nc(Nc2ccccc2)nc(Nc2ccc3c4cccc5cccc(c6cccc2c63)c54)n1,emission maximum,in C1COCCO1,478 nm
same,emission maximum,in CC#N,477 nm
same,emission maximum,in CCCCOCCCC,476 nm
same,emission maximum,in CCOC(C)=O,475 nm
C1=C(c2ccccc2)C=C(c2ccccc2)/C1=C/c1cccc(Oc2ccccc2)c1,emission maximum,in C1CCOC1,506 nm
C=Cc1cc2ccc(N(CC)CC)cc2oc1=O,emission maximum,in CC#N,470 nm
O=S(=O)([O-])c1ccc(O)c2ccccc12,emission maximum,in C1COCCO1,357 nm
same,emission maximum,in CC#N,358 nm
same,emission maximum,in CC(C)O,360 nm
same,emission maximum,in CCCCO,361 nm
same,emission maximum,in CCO,360 nm
same,emission maximum,in CCOC(C)=O,354 nm
same,emission maximum,in CN(C)C=O,366 nm
same,emission maximum,in CO,361 nm
same,emission maximum,in CS(C)=O,370 nm
C[Si]1(C)O[Si](C)(C)c2cc3nc4ccccc4c(-c4ccccc4)c3cc2[Si](C)(C)O1,emission maximum,in ClCCl,501 nm
COC(=O)c1ccc(C2=C3C=c4sccc4=[N+]3[B-](F)(F)n3c2cc2sccc23)cc1,emission maximum,in ClCCl,604 nm
CC1(C)c2ccccc2N(c2ccc(-c3nc(-c4ccccn4)n(-c4ccc(N5c6ccccc6C(C)(C)c6ccccc65)cc4)n3)cc2)c2ccccc21,emission maximum,in ClCCl,445 nm
CCCCN(CCCC)c1ccc(C#Cc2cc(C#Cc3ccc([N+](=O)[O-])cc3)c(C#Cc3ccc([N+](=O)[O-])cc3)cc2C#Cc2ccc(N(CCCC)CCCC)cc2)cc1,emission maximum,in ClCCl,563 nm
[BH3-][P+]1(c2ccccc2)c2ccccc2-c2sc3ccccc3c21 (centres undefined),emission maximum,in C1CCCCC1,395 nm
same,emission maximum,in CC#N,401 nm
same,emission maximum,in CCO,400 nm
same,emission maximum,in ClCCl,400 nm
CC[n+]1c(C=C2C(=O)C(C=C3N(C)c4ccc(Cl)cc4C3(C)C)=C2[O-])[se]c2ccccc21,emission maximum,in CO,662 nm
same,emission maximum,in ClC(Cl)Cl,677 nm
CC(C)(C)c1ccc(-c2ccc(C(C)(C)C)cc2)cc1,emission maximum,in C1CCCCC1,312 nm
C(=C1c2ccccc2CCc2ccccc21)c1ccc(-c2ccc(C=C3c4ccccc4CCc4ccccc43)cc2)cc1,emission maximum,in C1CCOC1,394 nm
CCCCN(CCCC)c1ccc(C#Cc2cc(C#Cc3ccc([N+](=O)[O-])cc3)c(C#Cc3ccc(N(CCCC)CCCC)cc3)cc2C#Cc2ccc([N+](=O)[O-])cc2)cc1,emission maximum,in ClCCl,557 nm
Fc1ccccc1-c1c2cc(Cl)ccc2nc2cc3ccccc3cc12,emission maximum,in ClCCl,526 nm
